The assay relates to NCI-H292 cells. Kind of assay: AB-PAS staining of mucus glycoprotein in NCI-H292 cells. It counts as cell-based, human. Particulars: FIG. 1 and 2. The method, then:
NCI-H292 cells (human pulmonary mucoepidermoid tumor cell strain, purchased from ATCC) were suspended in 10% FCS (Fetal Calf Serum)-containing RPMI-1640 (produced by Gibco Corp.), sowed on a Lab-Tek 8 well chamber slide (produced by Nunc Corp.) in a density of 6.0×10^4 cells/cm^2, cultured for 72 hours, subjected to the replacement of the culture solution by RPMI-1640 containing 0.1% of BSA, and further cultured for 24 hours.
On the day of the treatment, the culture solution of each well was replaced by RPMI-1640 (containing 0.1% BSA) containing EGF (5 ng/mL, produced by Becton Dickinson Corp.), HB-EGF (5 ng/mL, produced by R & D Corp.), TGF-α (5 ng/mL, produced by Peprotech Corp.), or PBS to start the treatment. Then, the cells were incubated at 37° C. for 24 hours.
After the prescribed 24 hours treatment, the culture supernatant was removed. The residue was once washed with PBS, mixed with 4% paraformaldehyde/PBS, and then allowed to stand at room temperature for one hour to immobilize the cells. The immobilized cells were twice washed with Milli Q water and then stained with AB-PAS. The staining was carried out according to a book (“All of new dyeing methods” p136-150 (Iyaku Shuppansha)). After staining, the cells were sequentially immersed in 70, 80, and 100% ethanol for five minutes, respectively, to remove water, sealed in an Aquatex (produced by Merck Corp.), and then subjected to the observation of the staining image with an optical microscope. From the results, it was clarified that all of HAST, TGF-α, EGF, and HB-EGF promoted the production of the mucus glycoprotein.
NCI-H292 cells (purchased from ATCC) were suspended in 10% FCS-containing RPMI-1640 (produced by Gibco Corp.), sowed on a Lab-Tek 8 well chamber slide (produced by Nunc Corp.) in a density of 6.0×10^4 cells/cm^2, cultured for 72 hours, subjected to the replacement of the culture solution by RPMI-1640 containing 0.1% of BSA, and further cultured for 24 hours. […]

Consider “HAST: human airway-specific trypsin-like enzyme; propeptide moiety bound to trypsin-like protein moiety via a disulfide bond”, for which the “production of the mucus glycoprotein” value is “promoted”.

The record behind these values is patent publication US20040038369A1, “Airway-specific trypsin-like enzymes and method of using the same” (priority 2000, published 2004).
